What was measured:
[1] = biological target: T1, RORγ-LBD (Homo sapiens, UniProt P51449); assay: RORγ-Ligand Binding Domain (LBD) TR-FRET Assay; type: biochemical;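 on TR-FRET Assay Max Response: 665/615 nm ratio relative to signal without ursolic acid or compound set at 100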
T1 construct: made in house; host or cells: SF9 cells (baculovirus)
T1 sequence (P51449 269-508 limits assumed): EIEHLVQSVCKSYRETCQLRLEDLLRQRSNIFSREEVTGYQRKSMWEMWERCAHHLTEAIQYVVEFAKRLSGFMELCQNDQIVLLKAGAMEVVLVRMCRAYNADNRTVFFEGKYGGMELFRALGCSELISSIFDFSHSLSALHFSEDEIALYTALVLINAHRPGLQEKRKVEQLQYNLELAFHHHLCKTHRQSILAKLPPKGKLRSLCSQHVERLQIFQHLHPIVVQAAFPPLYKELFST
In short: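 His-tagged RORγ-LBD from SF9 baculovirus lysate, ~3 nM final, in 50 mM Tris pH 7.0, 50 mM KCl, 1 mM EDTA, 0.1 mM DTT, 0.01% BSA. Biotinylated SRC1 LXXLL peptide at 200 nM final with 2 μM ursolic acid; TR-FRET read-out, 1% DMSO final.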

[2] = biological target: T2, Gal4-RORγ-LBD (Homo sapiens, UniProt P51449); assay: Gal4-RORγ Luciferase Reporter Assay in HEK-293T Cells; type: cell-based; conditions: HEK-293 cells, 2 μM ursolic acid
T2 construct: expressed in transfected cells; host or cells: HEK-293 cells (pcDNA3.1neo plasmid)
T2 sequence (P51449 269-508 limits assumed): T1 sequence (P51449 269-508 limits assumed)
In short: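 HEK-293 cells were transiently co-transfected with Gal4-RORγ-LBD and pGL4.31 Gal4-luciferase, with ursolic acid added at 2 μM final. Compounds were incubated overnight at 37° C. in 0.2% DMSO and luminescence read with One-Glo. Max Response is the upper plateau of a 4-parameter logistic fit, with signal lacking ursolic acid or compound set to 100.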

Row | Compound | EC50 [1] [nM] | TR-FRET Assay Max Response [1] | EC50 [2] [nM] | Gal4-RORγ Assay Max Response [2]
1 | O=C(O)[C@H]1C[C@@H]1[C@H]1CN(S(=O)(=O)c2cccc(C(F)(F)F)c2)c2cc(-c3cc(F)ccc3F)ccc2O1 [Compound 54, (1S,2S)-2-((S)-6-(2,5-difluorophenyl)-4-((3-(trifluoromethyl)phenyl)sulfonyl)-3,4-dihydro-2H-benzo[b][1,4]oxazin-2-yl)cyclopropane-1-carboxylic acid] | < 500 | ** (The symbol “**” indicates a value in the range of greater than 90 to 150) | 500 to 5000 | ** (The symbol “**” indicates a value in the range of greater than 90 to 150)
2 | O=C(O)[C@@H]1C[C@H]1[C@H]1CN(S(=O)(=O)c2cccc(C(F)(F)F)c2)c2cc(-c3cc(F)cc(OC(F)F)c3)ccc2O1 [Compound 55, (1R,2R)-2-((S)-6-(3-(difluoromethoxy)-5-fluorophenyl)-4-((3-(trifluoromethyl)phenyl)sulfonyl)-3,4-dihydro-2H-benzo[b][1,4]oxazin-2-yl)cyclopropane-1-carboxylic acid] | < 500 | ** (The symbol “**” indicates a value in the range of greater than 90 to 150) | < 500 | * (The symbol “*” indicates a value in the range of 25 to 90)
3 | O=C(O)[C@H]1C[C@@H]1[C@H]1CN(S(=O)(=O)c2cccc(C(F)(F)F)c2)c2cc(-c3cc(F)cc(OC(F)F)c3)ccc2O1 [Compound 56, (1S,2S)-2-((S)-6-(3-(difluoromethoxy)-5-fluorophenyl)-4-((3-(trifluoromethyl)phenyl)sulfonyl)-3,4-dihydro-2H-benzo[b][1,4]oxazin-2-yl)cyclopropane-1-carboxylic acid] | < 500 | ** (The symbol “**” indicates a value in the range of greater than 90 to 150) | 500 to 5000 | ** (The symbol “**” indicates a value in the range of greater than 90 to 150)
4 | O=C(O)C1(C[C@H]2CN(S(=O)(=O)c3cccc(C(F)(F)F)c3)c3cc(-c4cc(F)cc(OC(F)F)c4)ccc3O2)CCOCC1 [Compound 58, (S)-4-((6-(3-(difluoromethoxy)-5-fluorophenyl)-4-((3-(trifluoromethyl)phenyl)sulfonyl)-3,4-dihydro-2H-benzo[b][1,4]oxazin-2-yl)methyl)tetrahydro-2H-pyran-4-carboxylic acid] | < 500 | *** (The symbol “***” indicates a value in the range of greater than 150 to 200) | < 500 | ** (The symbol “**” indicates a value in the range of greater than 90 to 150)
5 | O=C(O)[C@H]1C[C@H](C[C@H]2CN(S(=O)(=O)c3cccc(C(F)(F)F)c3)c3cc(-c4cc(F)cc(OC(F)F)c4)ccc3O2)C1 [Compound 59, (1S,3r)-3-(((S)-6-(3-(difluoromethoxy)-5-fluorophenyl)-4-((3-(trifluoromethyl)phenyl)sulfonyl)-3,4-dihydro-2H-benzo[b][1,4]oxazin-2-yl)methyl)cyclobutane-1-carboxylic acid] | < 500 | *** (The symbol “***” indicates a value in the range of greater than 150 to 200) | < 500 | ** (The symbol “**” indicates a value in the range of greater than 90 to 150)
6 | O=C(O)[C@H]1C[C@H](C[C@H]2CN(S(=O)(=O)c3cccc(C(F)(F)F)c3)c3cc(-c4cc(F)ccc4F)ccc3O2)C1 [Compound 60A, (1S,3r)-3-(((S)-6-(2,5-difluoro-phenyl)-4-((3-(trifluoromethyl)-phenyl)sulfonyl)-3,4-dihydro-2H-benzo[b][1,4]oxazin-2-yl)methyl)cyclobutane-1-carboxylic acid] | < 500 | *** (The symbol “***” indicates a value in the range of greater than 150 to 200) | < 500 | ** (The symbol “**” indicates a value in the range of greater than 90 to 150)
7 | O=C(O)[C@H]1C[C@H](C[C@H]2CN(S(=O)(=O)c3cccc(C(F)(F)F)c3)c3cc(-c4cc(F)cc(F)c4Cl)ccc3O2)C1 [Compound 60B, (1S,3r)-3-(((S)-6-(2-chloro-3,5-difluorophenyl)-4-((3-(trifluoro-methyl)phenyl)sulfonyl)-3,4-dihydro-2H-benzo[b][1,4]oxazin-2-yl)methyl)cyclobutane-1-carboxylic acid] | < 500 | *** (The symbol “***” indicates a value in the range of greater than 150 to 200) | < 500 | ** (The symbol “**” indicates a value in the range of greater than 90 to 150)
8 | O=C(O)[C@H]1C[C@H](C[C@H]2CN(S(=O)(=O)c3cccc(C(F)(F)F)c3)c3cc(-c4cccc(C(F)(F)F)n4)ccc3O2)C1 [Compound 60C, (1S,3r)-3-(((S)-4-((3-(trifluoro-methyl)phenyl)sulfonyl)-6-(6-(trifluoromethyl)pyridin-2-yl)-3,4-dihydro-2H-benzo[b][1,4]-oxazin-2-yl)methyl)cyclobutane-1-carboxylic acid] | < 500 | ** (The symbol “**” indicates a value in the range of greater than 90 to 150) | < 500 | ** (The symbol “**” indicates a value in the range of greater than 90 to 150)
9 | CC(=O)N[C@H]1C[C@H](C[C@H]2CN(S(=O)(=O)c3cccc(C(F)(F)F)c3)c3cc(-c4cc(F)cc(OC(F)F)c4)ccc3O2)C1 [Compound 60D, N-((1S,3r)-3-(((S)-6-(3-(difluoro-methoxy)-5-fluoro-phenyl)-4-((3-(trifluoro-methyl)-phenyl)sulfonyl)-3,4-dihydro-2H-benzo[b][1,4]-oxazin-2-yl)methyl)cyclo-butyl)-acetamide] | < 500 | *** (The symbol “***” indicates a value in the range of greater than 150 to 200) | < 500 | * (The symbol “*” indicates a value in the range of 25 to 90)
10 | CC(=O)N[C@H]1C[C@H](C[C@H]2CN(S(=O)(=O)c3cccc(C(F)(F)F)c3)c3cc(-c4cc(F)ccc4F)ccc3O2)C1 [Compound 60E, N-((1S,3r)-3-(((S)-6-(2,5-difluorophenyl)-4-((3-(trifluoro-methyl)phenyl)sulfonyl)-3,4-dihydro-2H-benzo[b][1,4]oxazin-2-yl)methyl)cyclobutyl)-acetamide] | < 500 | *** (The symbol “***” indicates a value in the range of greater than 150 to 200) | < 500 | ** (The symbol “**” indicates a value in the range of greater than 90 to 150)
11 | C[C@]1(C(=O)O)C[C@H](C[C@H]2CN(S(=O)(=O)c3cccc(C(F)(F)F)c3)c3cc(-c4cccc(C(F)(F)F)n4)ccc3O2)C1 [Compound 60N, (1S,3r)-1-methyl-3-(((S)-4-((3-(trifluoromethyl)phenyl)-sulfonyl)-6-(6-(trifluoro-methyl)pyridin-2-yl)-3,4-dihydro-2H-benzo[b][1,4]-oxazin-2-yl)methyl)cyclobutane-1-carboxylic acid] | < 500 | ** (The symbol “**” indicates a value in the range of greater than 90 to 150) | < 500 | ** (The symbol “**” indicates a value in the range of greater than 90 to 150)
12 | CC1(C(=O)O)CC(C[C@H]2CN(S(=O)(=O)c3cccc(C(F)(F)F)c3)c3cc(-c4cccc(C(F)(F)F)n4)ccc3O2)C1 (stereo partly drawn) [Compound 60O, (1R,3s)-1-methyl-3-(((S)-4-((3-(trifluoromethyl)phenyl)-sulfonyl)-6-(6-(trifluoro-methyl)pyridin-2-yl)-3,4-dihydro-2H-benzo[b][1,4]-oxazin-2-yl)methyl)cyclobutane-1-carboxylic acid] | < 500 | *** (The symbol “***” indicates a value in the range of greater than 150 to 200) | < 500 | ** (The symbol “**” indicates a value in the range of greater than 90 to 150)
13 | CC(=O)N1CC(C[C@H]2CN(S(=O)(=O)c3cccc(C(F)(F)F)c3)c3cc(-c4cc(F)cc(OC(F)F)c4)ccc3O2)C1 [Compound 61, (S)-1-(3-((6-(3-(difluoromethoxy)-5-fluorophenyl)-4-((3-(trifluoromethyl)phenyl)sulfonyl)-3,4-dihydro-2H-benzo[b][1,4]oxazin-2-yl)methyl)azetidin-1-yl)ethan-1-one] | < 500 | *** (The symbol “***” indicates a value in the range of greater than 150 to 200) | < 500 | ** (The symbol “**” indicates a value in the range of greater than 90 to 150)
14 | CC(=O)N1CC(C[C@H]2CN(S(=O)(=O)c3cccc(C(F)(F)F)c3)c3cc(-c4cc(F)ccc4F)ccc3O2)C1 [Compound 62, (S)-1-(3-((6-(2,5-difluorophenyl)-4-((3-(trifluoromethyl)phenyl)sulfonyl)-3,4-dihydro-2H-benzo[b][1,4]oxazin-2-yl)methyl)azetidin-1-yl)ethan-1-one] | < 500 | ** (The symbol “**” indicates a value in the range of greater than 90 to 150) | < 500 | ** (The symbol “**” indicates a value in the range of greater than 90 to 150)

Reference: patent US10611740B2, “Aryl dihydro-2H-benzo[b][1,4]oxazine sulfonamide and related compounds for use as agonists of RORγ and the treatment of disease” (Lycera Corporation, priority 2015, dated 2020)
